Test results taken from patent US20080096970A1, “Stable Nateglinide Form B Compositions” (priority 2004, published 2008).

Test: Polymorphic stability of nateglinide Form B after processing: absence of Form H by X-ray powder diffraction
Assay type: physicochemical
Settings: Cu Kα-1, after de-lumping and air jet milling, Form H detectable at about 2 percent by weight or more
Description: Stability of the nateglinide Form B after processing is determined by an absence of the polymorphic Form H of the compound. This is determined by generating X-ray powder diffraction patterns of samples and checking for the characteristic peaks that correspond to Form H. For the present application, the X-ray diffraction patterns of the figures were obtained with Cu Kα-1 radiation. Nateglinide Form H can be detected at concentrations at least about 2 percent by weight, and quantified at concentrations at least about 5 percent by weight.

CC(C)[C@H]1CC[C@H](C(=O)NC(Cc2ccccc2)C(=O)O)CC1 (single isomer, unassigned; (-)) [nateglinide Form B, (−)-N-[(trans-4-isopropylcyclohexane)-carbonyl]-D-phenylalanine]
presence of nateglinide Form H after particle size reduction (stability of Form B): not detected
